Laboratory results reported in US7538226B2, “(1S,5S)-3-(5,6-dichloro-3-pyridinyl)-3,6-diazabicyclo[3.2.0]heptane” (Abbott Laboratories, priority 2003, dated 2009).

How the values were obtained:
Solubility in water = type: physicochemical
[1] = test system: scopolamine-induced cognitive deficit; test: Morris water maze, spatial discrimination version, scopolamine-induced cognitive deficit; type: in vivo, rat; settings: about 0.001 to about 5 μmol/kg, 30 minutes prior to the test; scopolamine HBr 0.3 mg/kg i.p.
Procedure: Male, Long-Evans rats, 300-400 g, obtained from Charles River laboratories were used in this study. During two daily habituation sessions, rats are trained to find a visible escape platform in a pool (180 cm diameter and 60 cm high) filled to a depth of 37 cm with water made opaque with powdered milk. Water temperature is maintained at 26° C. On the second day of habituation training, latency to escape measures are obtained in order to assure that animals are assigned to groups without swim speed bias. For spatial discrimination training, two visible platforms, covered in aluminum foil, are present. The platforms remain in the same position (diagonal to each other) through 5 days of training. Only one of the platforms provides escape; the other, made of expanded polystyrene, will not support the animals' weight. Rats receive six trials/day, with start position changed from trial to trial. The number of contacts with the incorrect platform (errors) serves as the dependent variable.
A cognitive deficit, as measured by increased number of errors in the water maze test, is induced by i.p. administration of the muscarinic antagonist scopolamine·HBr (0.3 mg/kg), dosed 15 min prior to each daily discrimination training session (over five days total).

| Compound | solubility (Solubility in water) | effect on scopolamine-induced cognitive deficit in the water maze [1] |
| --- | --- | --- |
| Clc1cc(N2C[C@@H]3CN[C@@H]3C2)cnc1Cl.O=C(O)/C=C/C(=O)O [Example 10, (1S,5S)-3-(5,6-Dichloro-pyridin-3-yl)-3,6-diaza-bicyclo[3.2.0]heptane fumarate] | 2900 µg/mL | – |
| Clc1cc(N2C[C@@H]3CN[C@@H]3C2)cnc1Cl [(1S,5S)-3-(5,6-Dichloropyridin-3-yl)-3,6-diaza-bicyclo[3.2.0]heptane] | – | reversed the cognitive deficit and normalized the performance of the animals in the water maze |
| CS(=O)(=O)O.Clc1cc(N2C[C@@H]3CN[C@@H]3C2)cnc1Cl [Example 8, (1S,5S)-3-(5,6-Dichloro-pyridin-3-yl)-3,6-diaza-bicyclo[3.2.0]heptane methanesulfonate] | > 50000 µg/mL | – |
| Clc1cc(N2C[C@@H]3CN[C@@H]3C2)cnc1Cl.O=C(O)/C=C\C(=O)O [Example 9, (1S,5S)-3-(5,6-Dichloro-pyridin-3-yl)-3,6-diaza-bicyclo[3.2.0]heptane maleate] | 7500 µg/mL | – |
| CC(=O)O.Clc1cc(N2C[C@@H]3CN[C@@H]3C2)cnc1Cl [Example 6, (1S,5S)-3-(5,6-Dichloro-pyridin-3-yl)-3,6-diaza-bicyclo[3.2.0]heptane acetate] | 13400 µg/mL | – |
